This assay deals with T1, dopamine, D1 receptors (Rattus norvegicus, UniProt P18901).
T1 construct: from tissue; host or cells: rat striatum (inferred from the cited Billard et al. 1984)
Put plainly: 3H-SCH23390 binding test (Billard et al.). To be noted: 3H-SCH23390 radioligand; read-out: IC50 value (the concentration of the compound required to reduce the binding of 3H-SCH23390 by 50%). From the text: As mentioned above, the compounds of formula (I), with the exception of those in which both R^1 and R^2 are hydrogen and those in which R^3 in optionally substituted phenylsulphonyl, have useful central nervous system activity with low toxicity. […] The compounds of formula (I) and pharmaceutically-acceptable acid addition salts thereof, are potent centrally acting compounds which are useful in the treatment of depression, mild anxiety states, certain kinds of psychotic conditions such as schizophrenia and acute mania and parkinsonism.

T1 sequence (P18901 whole entry): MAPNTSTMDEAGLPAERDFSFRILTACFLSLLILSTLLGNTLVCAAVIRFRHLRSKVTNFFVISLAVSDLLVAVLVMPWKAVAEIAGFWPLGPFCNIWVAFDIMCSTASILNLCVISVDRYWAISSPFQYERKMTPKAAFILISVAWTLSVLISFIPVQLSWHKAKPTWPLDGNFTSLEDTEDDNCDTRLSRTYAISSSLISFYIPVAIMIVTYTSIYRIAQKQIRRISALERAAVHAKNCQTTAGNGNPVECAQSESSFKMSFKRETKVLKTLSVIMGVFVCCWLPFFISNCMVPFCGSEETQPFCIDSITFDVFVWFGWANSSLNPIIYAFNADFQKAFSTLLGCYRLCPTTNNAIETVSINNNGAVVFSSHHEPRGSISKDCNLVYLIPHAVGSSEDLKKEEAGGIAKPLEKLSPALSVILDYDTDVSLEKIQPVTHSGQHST

As for `CN1CCc2c([nH]c(Br)c2Br)C(c2ccccc2)C1` (racemic) [Example 10, 2,3-Dibromo-1,4,5,6,7,8-hexahydro-6-methyl-8-phenylpyrrolo[2,3-d]azepine], the IC50 came to 1100 nM.
The result for `CN1CCc2c(Br)c[nH]c2C(c2ccccc2)C1` (racemic) [Example 12, 3-Bromo-1,4,5,6,7,8-hexahydro-6-methyl-8-phenylpyrrolo[2,3-d]azepine] reads 150 nM.

The values are drawn from patent US5258378A, “Pyrroloazepine compounds useful as dopaminergic agents” (Lilly Industries Limited, priority 1990, dated 1993).
